This is an account of results in patent US5153183A, “Methylenediphosphonic acid compounds and methods of use for the treatment of rheumatism and osteophorosis” (Toray Industries, Inc., priority 1989, dated 1992).

Molecules are shown by their SMILES.

The test system of one data set is Lewis female rat. Description: Adjuvant arthritis test. The data set is classed as in vivo. To be noted: 50 mg/kg oral daily, 8th to 21st day after adjuvant injection, 6 cases; for Edema inhibiting rate against control group, +14 day, Left / Edema inhibiting rate against control group, +21 day, Left: left hindpaw (injected); for Edema inhibiting rate against control group, +14 day, Left / Edema inhibiting rate against control group, +14 day, Right: day 14; for Edema inhibiting rate against control group, +21 day, Left / Edema inhibiting rate against control group, +21 day, Right: day 21; for Edema inhibiting rate against control group, +14 day, Right / Edema inhibiting rate against control group, +21 day, Right: right hindpaw; for Zonal bone damage inhibiting rate against control group, +22 day: soft X-ray of hindlegs, day 22. How it is done:
When a Mycobacterium butyricum adjuvant is injected into a rat, there occurs polyarthritis similar to human rheumatoid arthritis. Using such an adjuvant arthritis model, the anti-inflammatory and anti-rheumatic effects of the compounds of the present invention and the reference were examined according to the following procedure.
0.1 mg of dry dead Mycobacterium butyricum was suspended in 0.1 ml of liquid paraffin, and the suspension was injected into the skin of the sole of the left hindpaw of a Lewis female rat, 7-weeks old. The compounds obtained in Examples 2 and 4 and Reference were respectively dissolved in sterilized distilled water and orally administered at a dose of 50 mg per kg of body weight every day for two weeks from the 8th to 21st day after adjuvant injection. The volumes of the left and right hindpaws were measured. Edema density was calculated according to the formula [formula] and the Edema inhibiting rate was obtained according to the formula [formula] with the results shown in Table 1.
On the 22nd day, the rats were sacrificed, and soft X-ray photos of the left and right hind-legs were taken, and, based on the soft X-ray photos, the extent of bone damage at 5 zones on the left and right hindlegs was evaluated in points of 5 ranks, and the total points were taken as the zonal bone damage index. Further, the zonal bone damage inhibiting rate was calculated according to the formula [formula] with the results shown in Table 1.
The results thus obtained had ** noted for those which were significant according to the Student t-test and Tukey multiple comparison method with a perilous rate p<0.02 against the control group having only the sterilized distilled water administered and * noted for those which were significant with a perilous rate p<0.05.

The test system of a further data set is osteoclasts. Nature of the data set: Bone resorption inhibition test. The data set is classed as cell-based. To be noted: Mus musculus, Osteoclast, 120 h, active-type vitamin D3 (10^-10 M), ivory lamella, 5 days, read-out: Bone resorption inhibiting rate against control group. As to the method:
With an osteoclast fraction prepared from the hindleg of a mouse placed on a lamella of ivory and stimulated by active-type vitamin D3 there is an resorption lacuna produced on the surface of ivory due to the absorption activity of the osteoclast. Using this absorption model of the bone, the bone resorption inhibiting effect of the compound of the invention was examined according to the following procedure.
5 μl of a suspension of osteoclasts prepared from the hindleg of a mouse was placed on a lamella of ivory and cultured in 500 μl of a 5% calf serum α-added MEM medium containing active-type vitamin D3 (10^-10 M) and the compound of the present invention ([…] or 10^-5 M) for 5 days. After culturing, the osteoclasts were removed from the ivory lamella, and the ivory was stained. The total area of resorption lacunae which became obvious by staining was calculated through image analysis. The bone absorption inhibiting rate was calculated by the formula [formula]

A short description of another data set: Acute toxicity test. The data set is classed as in vivo, rat. The conditions noted are these: rat, in vivo, iv, 14 days, distilled water. As to the method: (§1) Using female and male SD rats (5-week age), 6 rats per group, and a 10% aqueous solution of gum arabic for oral administration, and distilled water for intravenous administration as a solvent for the compound to be tested, mortality, during 14 days after administration were recorded, and the LD50 values were calculated according to the Miller and Tainter Method (1944).

Another data set deals with SD rats. Nature of the data set: Acute toxicity test. To be noted: 14 days, 20160 min. The data set is classed as in vivo, rat. How it is done: as §1
The mark [1] stands for this setting: Oral, Female SD rats, 10% gum arabic.
The mark [2] stands for this setting: Oral, Male SD rats, 10% gum arabic.

With `CC(C)(C)c1cc(SC(P(=O)(O)O)P(=O)(O)O)cc(C(C)(C)C)c1O` [Example 2, (3,5-di-t-butyl-4-hydroxyphenylthio)methylenediphosphonic acid], in the data set with Lewis female rat, the “Edema inhibiting rate against control group, +14 day, Left” value (shortened to “Edema inhibiting rate … +14 day, Left”) came to 29.2%; the “Edema inhibiting rate against control group, +21 day, Left” value (“Edema inhibiting rate … +21 day, Left” for short) is 33.8%; the “Edema inhibiting rate against control group, +14 day, Right” value (“Edema inhibiting rate … +14 day, Right” below) was found to be 39.7%; the “Edema inhibiting rate against control group, +21 day, Right” value (“Edema inhibiting rate … +21 day, Right” below) is on record as 30.4%. Further, the “Zonal bone damage inhibiting rate against control group, +22 day” value (“Zonal bone damage inhibiting rate” below) with Lewis female rat came to 32.5%. In addition, the inhibition at 10 µM in the data set on osteoclasts (10^-5 M) is 86%. In the data set with osteoclasts (10^-6 M), the inhibition at 1 µM stood at 48%. Moreover, the LD50 (in general, the dose at which mortality reaches 50%) at 336 h in “Acute toxicity test” (Female SD rats) came to 29.8 mg/kg. For the same compound, in the data set “Acute toxicity test” (Male SD rats), the LD50 at 336 h is 45.2 mg/kg. Also, in the data set with SD rats (setting [1]), the “LD50 Values” was 616 mg/kg. Moreover, the “LD50 Values” in the data set on SD rats (setting [2]) was 652 mg/kg.
As to `CC(C)(C)c1cc(CC(P(=O)(O)O)P(=O)(O)O)cc(C(C)(C)C)c1O` [Example 4, 2-(3,5-di-t-butyl-4-hydroxyphenyl)ethylidene-1,1-di-phosphonic acid], in the data set with Lewis female rat, the “Edema inhibiting rate … +14 day, Left” value is recorded as 2.6%; the “Edema inhibiting rate … +21 day, Left” value was 9.7%; the “Edema inhibiting rate … +14 day, Right” value is 31.6%; the “Edema inhibiting rate … +21 day, Right” value amounted to 21.6%. In the data set on Lewis female rat, the “Zonal bone damage inhibiting rate” value is 29.4%.
In the case of `CC(C)(C)c1cc(SC(P(=O)(O)O)P(=O)(O)O)cc(C(C)(C)C)c1O` [Example 8, Disodium(3,5-di-t-butyl-4-hydroxyphenylthio)methylenediphosphonate], the “LD50 Values” was 35.7 mg/kg with SD rats (Intravenous, Female SD rats, distilled water); 48.2 mg/kg in the data set with SD rats (Intravenous, Male SD rats, distilled water); 1770 mg/kg with SD rats (setting [1]); 1871 mg/kg in the data set with SD rats (setting [2]).
As to `O=P(O)(O)C(Cc1ccc(O)cc1)P(=O)(O)O` [Reference compound, 2-(4-hydroxyphenyl)ethylidene-1,1-diphosphonic acid, reference compound], in the data set with Lewis female rat, the “Edema inhibiting rate … +14 day, Left” value is reported as 4.4%; the “Edema inhibiting rate … +21 day, Left” value was 0.9%; the “Edema inhibiting rate … +14 day, Right” value is given as 7.9%; the “Edema inhibiting rate … +21 day, Right” value worked out at 6.9%. Also, the “Zonal bone damage inhibiting rate” value in the data set on Lewis female rat was 0%.
